Laboratory results as given in paper PMC3864932, “Identification of Crucial Amino Acids in Mouse Aldehyde Oxidase 3 That Determine Substrate Specificity” (PLoS ONE, 2013).
Where two headings read alike, the source gives them in different places.

Tests used:
[1] = system: T1, mAOX3-FeSII-mAOX1; test: steady-state kinetics, DCPIP reduction at […] nm; format: biochemical, Mus musculus; conditions: 100 µM DCPIP as electron acceptor, 50 mM Tris-HCl pH 8.0, 1 mM EDTA, 37 °C, kcat corrected for Mo content
T1 construct: gene Aox3; mAOX3 with M1-P80 replaced by M1-P76 of mAOX1 (FeSII domain); N-terminal His6-tag; E. coli; dimer

[2] = system: T2, mAOX3-FeSII-FeSI-mAOX1; test: steady-state kinetics, DCPIP reduction at […] nm; format: biochemical, Mus musculus; conditions: 100 µM DCPIP as electron acceptor, 50 mM Tris-HCl pH 8.0, 1 mM EDTA, 37 °C; kcat corrected for Mo content
T2 construct: gene Aox3; mAOX3 with M1-Q214 replaced by M1-Q213 of mAOX1 (both FeS domains); N-terminal His6-tag; E. coli; dimer

[3] = system: T3, mAOX3-FeSI-mAOX1; test: steady-state kinetics, DCPIP reduction at […] nm; format: biochemical, Mus musculus; conditions: 100 µM DCPIP as electron acceptor, 50 mM Tris-HCl pH 8.0, 1 mM EDTA, 37 °C; kcat corrected for Mo content
T3 construct: gene Aox3; mAOX3 with A87-Q214 replaced by T83-Q213 of mAOX1 (FeSI domain); N-terminal His6-tag; E. coli; dimer

[4] = system: T4, mAOX3-FeSII-FeSI-mAOX1; conditions: read-out: mAOX3-FeSII-FeSI-mAOX1; O2 (air-saturated buffer) as electron acceptor, 50 mM Tris-HCl pH 8.0, 1 mM EDTA, 37 °C; kcat corrected for Mo content
T4 construct: gene Aox3

[5] = system: T5, mAOX3-FeSII-mAOX1; conditions: read-out: mAOX3-FeSII-mAOX1; O2 (air-saturated buffer) as electron acceptor, 50 mM Tris-HCl pH 8.0, 1 mM EDTA, 37 °C; kcat corrected for Mo content
T5 construct: gene Aox3

[6] = system: T6, mAOX3-FeSI-mAOX1; conditions: read-out: mAOX3-FeSI-mAOX1; O2 (air-saturated buffer) as electron acceptor, 50 mM Tris-HCl pH 8.0, 1 mM EDTA, 37 °C; kcat corrected for Mo content
T6 construct: gene Aox3

[7] = substrate: c1ccc2c(c1)cnc1ccccc12; test: purified protein; conditions: O2 (air-saturated buffer) as electron acceptor, 50 mM Tris-HCl pH 8.0, 1 mM EDTA, 37 °C, kcat corrected for Mo content
[8] = substrate: c1ccc2cnncc2c1; test: purified protein; format: biochemical, Mus musculus; conditions: 100 µM DCPIP as electron acceptor, 50 mM Tris-HCl pH 8.0, 1 mM EDTA, 37 °C, kcat corrected for Mo content
[9] = substrate: C[n+]1cccc(C(N)=O)c1; test: purified protein; format: biochemical, Mus musculus; conditions: 100 µM DCPIP as electron acceptor, 50 mM Tris-HCl pH 8.0, 1 mM EDTA, 37 °C, kcat corrected for Mo content

O=Cc1ccccc1 [benzaldehyde]
Km ([1]; read-out: mAOX3-FeSII-mAOX1): 1.6 ± 0.1 µM
Km [2]: 2.2 ± 0.1 µM
Km [3]: 3.6 ± 0.3 µM

c1ccc2c(c1)cnc1ccccc12 [phenanthridine]
Km [4]: 28 ± 2 µM
Km [5]: 30 ± 5 µM
Km [6]: 35 ± 2 µM

c1ccc2cnncc2c1 [phthalazine]
Km ([1]; read-out: mAOX3-WT ^4): 1.4 ± 0.2 µM
Km [2]: 1 ± 0.1 µM
Km [3]: 1.2 ± 0.1 µM

O=c1[nH]cnc2[nH]ncc12 [allopurinol]
Km [3]: 1340 ± 43 µM

B1: mAOX3 (mouse aldehyde oxidase 3) (Mus musculus; P1015G) (protein)
chain: MSPSKESDELIFFVNGKKVTERNADPEVNLLFYLRKVIRLTGTKYGCGGGDCGACTVMISRYDPISKRISHFSATACLVPICSLHGAAVTTVEGIGSTKTRIHPVQERIAKGHGTQCGFCTPGMVMSIYTLLRNHPEPSTEQIMETLGGNLCRCTGYRPIVESAKSFCPSSTCCQMNGEGKCCLDEEKNEPERKNSVCTKLYEKKEFQPLDPTQELIFPPELMRMAEESQNTVLTFRGERTTWIAPGTLNDLLELKMKHPSAPLVIGNTYLGLHMKFTDVSYPIIISPARILELFVVTNTKQGLTLGAGLSLTQVKNVLSDVVSRLPKEKTQIYCALLKQLKTLAGQQIRNVASLGGHIISRLPTSDLNPILGIGNCILNVASTEGIQQIPLNDHFLAGVPDAILKPEQVLISVFVPRSSKWEFVSAFRQAPRQQNAFATVNAGMKVVFKEDTNTITDLGILYGGIGATVISADKSCRQLIGRCWDEEMLDDAGKMICEEVSLLMAAPGGMEEYRKTLAISFLFMFYLDVLKQLKTRDPHKYPDISQKLLHILEDFPLTMPYGMQSFQDVDFQQPLQDPIGRPIMHQSGIKHATGEAVFCDDMSVLPGELFLAVVTSSKSHAKIISLDASEALASLGVVDVVTARDVPGDNGREEESLYAQDEVICVGQIVCAVAADSYAHAQQAAKKVKIVYQDIEPMIVTVQDALQYESFIGPERKLEQGNVEEAFQCADQILEGEVHLGGQEHFYMETQSVRVVPKGEDKEMDIYVSSQDAAFTQEMVARTLGIPKNRINCHVKRVGGAFGGKASKPGLLASVAAVAAQKTGRPIRFILERRDDMLITGGRHPLLGKYKIGFMNNGKIKAADIQLYINGGCTPDDSELVIEYALLKLENAYKIPNLRVRGRVCKTNLPSNTAFRGFGFPQGAFVTETCMSAVAAKCRLPPEKVRELNMYRTIDRTIHNQEFDPTNLLQCWEACVENSSYYNRKKAVDEFNQQRFWKKRGIAIIPMKFSVGFGKTFYYQAAALVQIYTDGSVLVAHGGVELGQGINTKMIQVASRELKIPMSYIHLDEMSTVTVPNTVTTGASTGADVNGRAVQNACQILMKRLEPIIKQNPSGTWEEWVKEAFVQSISLSATGYFRGYQADMDWEKGEGDIFPYFVFGAACSEVEIDCLTGAHKNIRTDIVMDGSFSINPAVDIGQIEGAFVQGLGLYTLEELKYSPEGVLYTRGPHQYKIASVTDIPEEFHVSLLTPTPNPKAIYSSKGLGEAGTFLGCSVFFAIAAAVAAAREERGLSPIWAINSPATAEVIRMACEDQFTNLVPQTDSKCCKPWSIPVA
Km [7]: 47 ± 2 µM
kcat [7]: 8.83 s⁻¹
kcat/Km [7]: 189000 M⁻¹ s⁻¹

B2: mAOX3 (mouse aldehyde oxidase 3) (Mus musculus; F1014V) (protein)
chain: MSPSKESDELIFFVNGKKVTERNADPEVNLLFYLRKVIRLTGTKYGCGGGDCGACTVMISRYDPISKRISHFSATACLVPICSLHGAAVTTVEGIGSTKTRIHPVQERIAKGHGTQCGFCTPGMVMSIYTLLRNHPEPSTEQIMETLGGNLCRCTGYRPIVESAKSFCPSSTCCQMNGEGKCCLDEEKNEPERKNSVCTKLYEKKEFQPLDPTQELIFPPELMRMAEESQNTVLTFRGERTTWIAPGTLNDLLELKMKHPSAPLVIGNTYLGLHMKFTDVSYPIIISPARILELFVVTNTKQGLTLGAGLSLTQVKNVLSDVVSRLPKEKTQIYCALLKQLKTLAGQQIRNVASLGGHIISRLPTSDLNPILGIGNCILNVASTEGIQQIPLNDHFLAGVPDAILKPEQVLISVFVPRSSKWEFVSAFRQAPRQQNAFATVNAGMKVVFKEDTNTITDLGILYGGIGATVISADKSCRQLIGRCWDEEMLDDAGKMICEEVSLLMAAPGGMEEYRKTLAISFLFMFYLDVLKQLKTRDPHKYPDISQKLLHILEDFPLTMPYGMQSFQDVDFQQPLQDPIGRPIMHQSGIKHATGEAVFCDDMSVLPGELFLAVVTSSKSHAKIISLDASEALASLGVVDVVTARDVPGDNGREEESLYAQDEVICVGQIVCAVAADSYAHAQQAAKKVKIVYQDIEPMIVTVQDALQYESFIGPERKLEQGNVEEAFQCADQILEGEVHLGGQEHFYMETQSVRVVPKGEDKEMDIYVSSQDAAFTQEMVARTLGIPKNRINCHVKRVGGAFGGKASKPGLLASVAAVAAQKTGRPIRFILERRDDMLITGGRHPLLGKYKIGFMNNGKIKAADIQLYINGGCTPDDSELVIEYALLKLENAYKIPNLRVRGRVCKTNLPSNTAFRGFGFPQGAFVTETCMSAVAAKCRLPPEKVRELNMYRTIDRTIHNQEFDPTNLLQCWEACVENSSYYNRKKAVDEFNQQRFWKKRGIAIIPMKFSVGVPKTFYYQAAALVQIYTDGSVLVAHGGVELGQGINTKMIQVASRELKIPMSYIHLDEMSTVTVPNTVTTGASTGADVNGRAVQNACQILMKRLEPIIKQNPSGTWEEWVKEAFVQSISLSATGYFRGYQADMDWEKGEGDIFPYFVFGAACSEVEIDCLTGAHKNIRTDIVMDGSFSINPAVDIGQIEGAFVQGLGLYTLEELKYSPEGVLYTRGPHQYKIASVTDIPEEFHVSLLTPTPNPKAIYSSKGLGEAGTFLGCSVFFAIAAAVAAAREERGLSPIWAINSPATAEVIRMACEDQFTNLVPQTDSKCCKPWSIPVA
notes: N-terminal His6-tag, full length, plasmid pMMA1, expressed in E. coli; homodimer with Moco, two [2Fe-2S], FAD
Km [8]: 12.5 ± 0.6 µM
kcat [8]: 4.63 ± 0.233 s⁻¹
kcat/Km [8]: 372000 ± 25000 M⁻¹ s⁻¹

B3: mAOX3 (mouse aldehyde oxidase 3) (Mus musculus; P1015A) (protein)
chain: MSPSKESDELIFFVNGKKVTERNADPEVNLLFYLRKVIRLTGTKYGCGGGDCGACTVMISRYDPISKRISHFSATACLVPICSLHGAAVTTVEGIGSTKTRIHPVQERIAKGHGTQCGFCTPGMVMSIYTLLRNHPEPSTEQIMETLGGNLCRCTGYRPIVESAKSFCPSSTCCQMNGEGKCCLDEEKNEPERKNSVCTKLYEKKEFQPLDPTQELIFPPELMRMAEESQNTVLTFRGERTTWIAPGTLNDLLELKMKHPSAPLVIGNTYLGLHMKFTDVSYPIIISPARILELFVVTNTKQGLTLGAGLSLTQVKNVLSDVVSRLPKEKTQIYCALLKQLKTLAGQQIRNVASLGGHIISRLPTSDLNPILGIGNCILNVASTEGIQQIPLNDHFLAGVPDAILKPEQVLISVFVPRSSKWEFVSAFRQAPRQQNAFATVNAGMKVVFKEDTNTITDLGILYGGIGATVISADKSCRQLIGRCWDEEMLDDAGKMICEEVSLLMAAPGGMEEYRKTLAISFLFMFYLDVLKQLKTRDPHKYPDISQKLLHILEDFPLTMPYGMQSFQDVDFQQPLQDPIGRPIMHQSGIKHATGEAVFCDDMSVLPGELFLAVVTSSKSHAKIISLDASEALASLGVVDVVTARDVPGDNGREEESLYAQDEVICVGQIVCAVAADSYAHAQQAAKKVKIVYQDIEPMIVTVQDALQYESFIGPERKLEQGNVEEAFQCADQILEGEVHLGGQEHFYMETQSVRVVPKGEDKEMDIYVSSQDAAFTQEMVARTLGIPKNRINCHVKRVGGAFGGKASKPGLLASVAAVAAQKTGRPIRFILERRDDMLITGGRHPLLGKYKIGFMNNGKIKAADIQLYINGGCTPDDSELVIEYALLKLENAYKIPNLRVRGRVCKTNLPSNTAFRGFGFPQGAFVTETCMSAVAAKCRLPPEKVRELNMYRTIDRTIHNQEFDPTNLLQCWEACVENSSYYNRKKAVDEFNQQRFWKKRGIAIIPMKFSVGFAKTFYYQAAALVQIYTDGSVLVAHGGVELGQGINTKMIQVASRELKIPMSYIHLDEMSTVTVPNTVTTGASTGADVNGRAVQNACQILMKRLEPIIKQNPSGTWEEWVKEAFVQSISLSATGYFRGYQADMDWEKGEGDIFPYFVFGAACSEVEIDCLTGAHKNIRTDIVMDGSFSINPAVDIGQIEGAFVQGLGLYTLEELKYSPEGVLYTRGPHQYKIASVTDIPEEFHVSLLTPTPNPKAIYSSKGLGEAGTFLGCSVFFAIAAAVAAAREERGLSPIWAINSPATAEVIRMACEDQFTNLVPQTDSKCCKPWSIPVA
notes: as for B2
Km [9]: 87 ± 3.4 µM
kcat [9]: 1.08 ± 0.183 s⁻¹
kcat/Km [9]: 12400 ± 2200 M⁻¹ s⁻¹
